# Assay results: PubChem BioAssay (NCI)
#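 Cultured in 96-well plates, cells were exposed to test compound for 48 hours across five concentrations. TGI marks complete inhibition of growth.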
# Key:
# Experiment in all cases: NCI-60 cell line screen, 48 h
# A498 renal = system: A498 renal
# A549 NSCLC = system: A549 NSCLC
# CAKI-1 renal = system: CAKI-1 renal
# DMS 273 small cell lung = system: DMS 273 small cell lung
# HCT-116 colon = system: HCT-116 colon
# HL-60(TB) leukemia = system: HL-60(TB) leukemia
# HOP-62 NSCLC = system: HOP-62 NSCLC
# HOP-92 NSCLC = system: HOP-92 NSCLC
# KM12 colon = system: KM12 colon
# MALME-3M melanoma = system: MALME-3M melanoma
# MOLT-4 leukemia = system: MOLT-4 leukemia
# NCI-H522 lung = system: NCI-H522 lung
# SF-268 CNS = system: SF-268 CNS
# SF-539 CNS = system: SF-539 CNS
# SNB-19 CNS = system: SNB-19 CNS
# SR leukemia = system: SR leukemia
# TK-10 renal = system: TK-10 renal
# HS 578T breast = system: HS 578T breast
# MDA-MB-231 breast = system: MDA-MB-231 breast
# MDA-N = system: MDA-N
Compound,TGI (A498 renal) [µM],TGI (A549 NSCLC) [µM],TGI (CAKI-1 renal) [µM],TGI (DMS 273 small cell lung) [µM],TGI (HCT-116 colon) [µM],TGI (HL-60(TB) leukemia) [µM],TGI (HOP-62 NSCLC) [µM],TGI (HOP-92 NSCLC) [µM],TGI (KM12 colon) [µM],TGI (MALME-3M melanoma) [µM],TGI (MOLT-4 leukemia) [µM],TGI (NCI-H522 lung) [µM],TGI (SF-268 CNS) [µM],TGI (SF-539 CNS) [µM],TGI (SNB-19 CNS) [µM],TGI (SR leukemia) [µM],TGI (TK-10 renal) [µM],TGI (HS 578T breast) [µM],TGI (MDA-MB-231 breast) [µM],TGI (MDA-N) [µM]
CCOC(=O)c1c(C(F)(F)F)oc2c1ccc1nc3nonc3nc12,30.7,35,27.3,34.4,32.1,32.5,18.9,27.3,51.3,32,12.6,29.3,38.6,32,38.2,17.7,36.4,,,
CCCOCN1COCN=C1NC#N,> 100,> 100,> 100,41.9,> 100,> 100,> 100,> 100,> 100,> 100,> 100,> 100,> 100,> 100,> 100,,> 100,,,
COC1=CC(=O)c2ccccc2C1(C)C1=NC(C)(C)CO1 (stereo unspecified),,> 100,> 100,> 100,> 100,> 100,> 100,> 100,> 100,> 100,> 100,> 100,> 100,> 100,> 100,> 100,> 100,,,
COc1cccc(/C=C2\C(=O)N(C(=O)Cc3ccccc3)N=C2C)c1,,> 100,> 100,> 100,> 100,> 100,> 100,,> 100,> 100,> 100,> 100,> 100,> 100,> 100,> 100,> 100,,,
NC(N)=NS(=O)(=O)c1ccc(NNc2c3ccccc3nc3c(C(=O)Nc4ccc(S(N)(=O)=O)cc4)cccc23)cc1,> 100,> 100,> 100,,> 100,77.9,> 100,73.8,> 100,> 100,70.6,> 100,> 100,> 100,> 100,> 100,> 100,88,> 100,> 100
COCC12CC(CC1=O)C1C2ON2c3ccccc3C(=O)C12c1ccccc1 (stereo unspecified),> 100,> 100,,> 100,> 100,> 100,> 100,> 100,,> 100,> 100,> 100,> 100,> 100,> 100,> 100,,,,
C1=c2ccccc2=C2C(=C(c3ccccc3)C(c3ccccc3)=NN2c2ccccc2)S1,> 100,> 100,> 100,> 100,> 100,> 100,> 100,> 100,> 100,> 100,> 100,> 100,> 100,> 100,> 100,,> 100,,,
O=C1C2Nc3ccccc3SC2C(=O)N1c1cccc([N+](=O)[O-])c1 (stereo unspecified),> 100,> 100,> 100,> 100,> 100,> 100,> 100,> 100,> 100,> 100,> 100,> 100,> 100,> 100,> 100,> 100,> 100,,,
COC(=O)C(=O)C1CCCCC(C2=NC3NN=C(N)N3C2=O)C1=O (stereo unspecified),> 100,> 100,> 100,> 100,> 100,> 100,> 100,> 100,> 100,> 100,> 100,> 100,> 100,> 100,> 100,> 100,> 100,,,
CC(C)(C)c1cc(C(C)(C)C)c2sc(=S)oc2c1O,26,> 41.3,18.6,,21,33,31.1,28.9,18,32.1,> 40.8,20.5,19.8,11.1,27.6,9.76,17.2,20.4,26.7,19.8
COc1cc(C2C(Cl)C(=O)N2NC(=O)Cc2ccccc2)ccc1O (stereo unspecified),,> 100,> 100,> 100,> 100,80.7,> 100,,> 100,> 100,> 100,56.3,> 100,,> 100,83.4,> 100,,,
COc1ccc(/C(Cl)=C/c2ccc(Cl)c(Cl)c2)cc1,72.8,83.6,,67.5,80.3,44.9,79,78.7,,56.8,37,41.1,> 100,> 100,> 100,47.9,,,,
COc1ccccc1OC(=O)/C=C/c1ccccc1,> 100,> 100,> 100,,> 100,> 100,> 100,> 100,> 100,> 100,> 100,> 100,> 100,> 100,> 100,> 100,> 100,> 100,> 100,> 100
CCOC(=O)CCc1c(C)[nH]c2c(C)c3c([nH]c4ccc(Cl)cc43)c(C)c2c1=O,33,23.5,49.5,,38.7,22.3,48.4,67.1,87,37.1,> 100,24.1,76.7,28.7,> 100,> 100,37.2,77.5,34.2,> 100
O=C(/C=C/c1ccc(Cl)c(Cl)c1)C1CCC(Cl)CC1 (stereo unspecified),83.1,46.8,50.1,32.1,25.1,,> 100,86.6,46.1,41.1,,32.9,37.1,33.6,39,,90.3,,,
C/C(CN1C(=O)c2ccccc2C1=O)=N\NS(=O)(=O)c1ccc(F)cc1,> 100,> 100,> 100,> 100,> 100,> 100,> 100,,> 100,> 100,> 100,> 100,> 100,> 100,> 100,> 100,> 100,,,
COC(=O)c1cc(C)n(NC(=O)OC(C)(C)C)c1C,> 100,> 100,> 100,> 100,> 100,> 100,> 100,,> 100,> 100,> 100,> 100,> 100,> 100,> 100,,> 100,,,
COC(=O)c1ccc(NCc2cc(O)ccc2O)cc1O,58.8,30.4,17.7,,36.3,4.21,24.4,29,15.3,34.7,8.49,1.59,21.8,6.31,31.8,> 23.8,33.2,> 68.1,25.7,23.5
N#CC(c1ccccc1)N(CCc1ccccc1)C(=O)Oc1ccccc1 (stereo unspecified),> 100,> 100,> 100,,> 100,> 100,> 100,95.7,> 100,> 100,> 100,> 100,> 100,> 100,> 100,> 100,> 100,> 100,> 100,> 100
Cc1cc(=O)[nH]c(CNC(=O)Cc2ccccc2)n1,> 100,> 100,> 100,> 100,,> 100,> 100,> 100,> 100,> 100,> 100,> 100,> 100,> 100,> 100,,> 100,,,
Cc1cc(=O)[nH]c2c3c(ccc12)OC(C)(C)C=C3,> 87.7,> 100,> 100,,> 50.1,> 100,> 100,> 100,> 100,> 100,> 100,67.4,> 100,> 23.8,> 67.3,> 100,> 100,32.8,> 100,4.29
Nc1ccc(C(=O)NN2C(=O)C(Cl)C2c2cccc([N+](=O)[O-])c2)cc1 (stereo unspecified),45.4,> 100,36,32.5,34.2,41.4,41.6,40.7,30.6,35.6,37.5,25.1,38.6,35.1,32.1,,35.3,,,
Cn1c2c(cc(-c3ccccc3)c1=O)COc1ccccc1-2,> 100,> 100,> 100,43.8,37.9,56.1,> 100,> 100,29,50.8,47.2,52.3,> 100,> 100,> 100,> 100,,,,
COc1nc2c(c(=O)n1C)NC(C(O)C(O)CO)C=N2 (stereo unspecified),> 10,> 10,> 10,,> 10,> 10,> 10,> 10,> 10,> 10,> 10,> 10,> 10,> 10,> 10,> 10,> 10,> 10,> 10,> 10
CCCCCC(=O)Cc1cc(OC)cc2c1C(=O)Oc1cc(O)c(C(=O)O)c(CC(=O)CCCCC)c1O2,> 100,> 100,> 100,> 100,71.2,> 100,> 100,,> 100,> 100,> 100,> 100,> 100,,,> 100,> 100,,,
Cc1nc(N)sc1C(=O)/C=C/c1ccc([N+](=O)[O-])cc1,> 100,> 100,> 100,> 100,,> 100,> 100,> 100,> 100,> 100,> 100,> 100,> 100,> 100,> 100,,> 100,,,
C[N+](C)(Cc1ccc(NC(=O)CCCC(=O)ON2C(=O)CCC2=O)cc1)c1ccccc1,> 100,2.08,> 100,> 100,18.2,> 100,,< 0.01,> 100,< 0.01,1.8,> 100,3.93,< 0.01,> 100,< 0.01,> 100,,,
COc1ccc(C2S/C(=C\c3cccc(O)c3)C(=O)N2NC(=O)Cc2ccccc2)cc1 (stereo unspecified),> 100,> 100,> 100,> 100,> 100,> 100,> 100,> 100,> 100,> 100,> 100,> 100,> 100,> 100,,> 100,> 100,,,
